Assays:
[1] = system: P. falciparum (CQ-resistant) W2 strain; assay: In vitro antimalarial SYBR Green I fluorescence assay, Pf W2; assay type: cell-based; details: Plasmodium falciparum, W2, 72 h, read-out: IC50 Pf W2
[2] = system: P. falciparum (3D7) trophozoite development; assay type: cell-based, Plasmodium falciparum; details: 5 μM, ~24 h treatment from midring stage
[3] = cited from earlier work

CCN(CC)CCCC(C)Nc1ccnc2cc(Cl)ccc12 (stereo not drawn) [CQ, chloroquine]
IC50 [1]: 430.6 ± 1.05 nM
hemozoin in the food vacuole / parasite development after treatment [2]: no hemozoin was seen in the food vacuole
log Kass with heme, reported value [3]: 5.15

Reference: publication PMC6044610 (ACS Omega, 2016)
